Assay results from patent US10246425B2, “3,5-diamino-6-chloro-N-(N-(4-phenylbutyl)carbamimidoyl) pyrazine-2-carboxamide compounds” (Parion Sciences, Inc., priority 2012, dated 2019).
Counter-ions that a name gives are not always drawn.

These compounds were tested on Primary CBE cells (assay: Airway hydration and sodium channel block (in vitro model): surface liquid retention). Conditions: 50 μl buffer, 10 μM, 8 hours.
Type: cell-based, canine
Procedure: Assay 4. Airway Hydration and Sodium Channel Block (In Vitro Model)
Primary CBE cells are plated onto collagen-coated, porous membranes maintained at an air-liquid interface to assess maintenance of surface liquid volume over time. At the start of the experiment, each 12 mm snapwell insert was removed from the plate containing air-liquid interface culture media, blotted dry, weighed, and 50 μL of vehicle (0.1% DMSO), or ENaC blocker (10 μM in 0.1% DMSO) applied to the apical surface and the mass was recorded. The inserts were immediately returned to a transwell plate (500 μL, Krebs Ringer Bicarbonate (KRB), pH 7.4 in lower chamber) and placed in a 37° C., 5% CO2 incubator. To reduce artifact due to an apical carbohydrate osmotic gradient upon water loss, glucose was not included in the apical buffer. Compound (1a) was tested and compared to vehicle, and the mass of ASL was monitored serially from 0-8 or 24 h. The mass of surface liquid was converted to volume in μL. Data are reported as % initial volume (100%=50 μL).
The duration of sodium transport inhibition was determined indirectly by measuring the buffer retained after a 50 μl volume of experimental buffer was added to the apical surface of CBE cells.

| Compound | surface liquid retained on apical surface (% initial volume) [%] |
| --- | --- |
| N=C(N)NC(=O)c1nc(Cl)c(N)nc1N [Amiloride, amiloride, reference compound] | 25±19.2 |

The compounds below were run on human bronchial epithelial (HBE) cells (assay: Airway surface liquid drug (ASL) clearance and metabolism by human airway epithelium). Conditions: Table 4: HBE cells, 25 μL of 25 μM apical, 2 h, 37° C.; mean ± SD.
Type: in vitro ADME
Procedure: Assay 3. Airway Surface Liquid Drug (ASL) Clearance and Metabolism by Human Airway Epithelium
(§1) The disappearance of Compound II-d from the apical surface and airway epithelial metabolism were assessed in human bronchial epithelial (HBE) cells (Table 3). In these experiments 25 μL of a 25 μM solution of ENaC blocker was added to the apical surface of HBE cells grown at an air/liquid interface, and the drug concentration in the apical and basolateral compartment was measured over 2 h by UPLC.
as §1, with “Therefore, the compounds of Formula (A) have a longer half-life on mucosal surfaces compared to these know compounds as evidenced by the data shown in Table 4. The” for “The”, “HBE and compared to Comparative Example 1” for “human bronchial epithelial (HBE) cells”, “4).” for “3).”

| % of Initial Drug Mass on Apical Side (Parent and metabolite, 2 h) [%] | Compound |
| --- | --- |
| 77.7 ± 12.2 | N=C(NCCCCc1ccc(C[C@H](NCCCN(C[C@H](O)[C@@H](O)[C@H](O)[C@H](O)CO)C[C@H](O)[C@@H](O)[C@H](O)[C@H](O)CO)C(N)=O)cc1)NC(=O)c1nc(Cl)c(N)nc1N [XVI-ee] |
| 76.6 ± 14.7 | CCCCCCN(CCCN[C@@H](Cc1ccc(CCCCNC(=N)NC(=O)c2nc(Cl)c(N)nc2N)cc1)C(N)=O)C[C@H](O)[C@@H](O)[C@H](O)[C@H](O)CO [XVII-d] |

Same assay, conditions: Table 4: HBE cells, 25 μL of 25 μM apical, 2 h; mean ± SD

| % of Apical Mass as Metabolites (2 h) | % of Initial Apical Mass on Basolateral Side (2 h) [%] | % on Basolateral Side as Metabolites (2 h) | Compound |
| --- | --- | --- | --- |
| none | 9.3 ± 0.86 | None | Cl.N=C(NCCCCc1ccc(CC[C@H](NCCCN(C[C@H](O)[C@@H](O)[C@H](O)[C@H](O)CO)C[C@H](O)[C@@H](O)[C@H](O)[C@H](O)CO)C(N)=O)c2ccccc12)NC(=O)c1nc(Cl)c(N)nc1N [V-d, 3,5-diamino-N—(N-(4-(4-((S)-4-amino-3-(3-(bis((2S,3R,4R,5R)-2,3,4,5,6-pentahydroxyhexyl)amino)propylamino)-4-oxobutyl)naphthalen-1-yl)butyl)carbamimidoyl)-6-chloropyrazine-2-carboxamide hydrochloride] |
| None | 1.81 ± 1.6 | None | N=C(NCCCCc1ccc(CC[C@H](NCCCN(C[C@H](O)[C@@H](O)[C@H](O)[C@H](O)CO)C[C@H](O)[C@@H](O)[C@H](O)[C@H](O)CO)C(N)=O)c2c1CCCC2)NC(=O)c1nc(Cl)c(N)nc1N [XV-dd, 3,5-diamino-N—(N-(4-(4-((S)-4-amino-3-(3-(bis((2S,3R,4R,5R)-2,3,4,5,6-pentahydroxyhexyl)amino)propylamino)-4-oxobutyl)-5,6,7,8-tetrahydronaphthalen-1-yl)butyl)carbamimidoyl)-6-chloropyrazine-2-carboxamide] |
| None | 2.0 ± 0.8 | None | CCCCCCN(CCCN[C@@H](Cc1ccc(CCCCNC(=N)NC(=O)c2nc(Cl)c(N)nc2N)c2ccccc12)C(N)=O)C[C@H](O)[C@@H](O)[C@H](O)[C@H](O)CO [VIII-d, 3,5-diamino-N—(N-(4-(4-((S)-3-amino-2-(3-(hexyl((2S,3R,4R,5R)-2,3,4,5,6-pentahydroxyhexyl)amino)propylamino)-3-oxopropyl)naphthalen-1-yl)butyl)carbamimidoyl)-6-chloropyrazine-2-carboxamide] |
| None | 5.0 ± 3.3 | None | N=C(NCCCCc1ccc2cc(C[C@H](NCCCN(C[C@H](O)[C@@H](O)[C@H](O)[C@H](O)CO)C[C@H](O)[C@@H](O)[C@H](O)[C@H](O)CO)C(N)=O)ccc2c1)NC(=O)c1nc(Cl)c(N)nc1N [X-d, 3,5-diamino-N—(N-(4-(6-((S)-3-amino-2-(3-(bis((2S,3R,4R,5R)-2,3,4,5,6-pentahydroxyhexyl)amino)propylamino)-3-oxopropyl)naphthalen-2-yl)butyl)carbamimidoyl)-6-chloropyrazine-2-carboxamide] |
| None | 14.9 ± 1.4 | None | N=C(NCCCCc1ccc(C[C@H](NCCCN(C[C@H](O)[C@@H](O)[C@H](O)[C@H](O)CO)C[C@H](O)[C@@H](O)[C@H](O)[C@H](O)CO)C(N)=O)cc1)NC(=O)c1nc(Cl)c(N)nc1N [XVI-ee] |
| None | 1.1 ± 0.2 | None | CCCCCCN(CCCN[C@@H](Cc1ccc2cc(CCCCNC(=N)NC(=O)c3nc(Cl)c(N)nc3N)ccc2c1)C(N)=O)C[C@H](O)[C@@H](O)[C@H](O)[C@H](O)CO [IX-m, 3,5-diamino-N—(N-(4-(6-((S)-3-amino-2-(3-(hexyl((2S,3R,4R,5R)-2,3,4,5,6-pentahydroxyhexyl)amino)propylamino)-3-oxopropyl)naphthalen-2-yl)butyl)carbamimidoyl)-6-chloropyrazine-2-carboxamide] |
| none | 3.5 ± 2.2 | None | CCCCCCN(CCCN[C@@H](CCc1ccc(CCCCNC(=N)NC(=O)c2nc(Cl)c(N)nc2N)cc1)C(N)=O)C[C@H](O)[C@@H](O)[C@H](O)[C@H](O)CO [III-d, 3,5-diamino-N—(N-(4-(4-((S)-4-amino-3-(3-(hexyl((2S,3R,4R,5R)-2,3,4,5,6-pentahydroxyhexyl)amino)propylamino)-4-oxobutyl)phenyl)butyl)carbamimidoyl)-6-chloropyrazine-2-carboxamide] |
| None | 6.4 ± 2.1 | None | N=C(NCCCCc1ccc(C[C@H](NCCCN(C[C@H](O)[C@@H](O)[C@H](O)[C@H](O)CO)C[C@H](O)[C@@H](O)[C@H](O)[C@H](O)CO)C(N)=O)c2ccccc12)NC(=O)c1nc(Cl)c(N)nc1N [VII-ee, 3,5-diamino-N—(N-(4-(4-((S)-3-amino-2-(3-(bis((2S,3R,4R,5R)-2,3,4,5,6-pentahydroxyhexyl)amino)propylamino)-3-oxopropyl)naphthalen-1-yl)butyl)carbamimidoyl)-6-chloropyrazine-2-carboxamide] |
| None | 4.2 ± 1.9 | None | N=C(NCCCCc1ccc2cc(CC[C@H](NCCCN(C[C@H](O)[C@@H](O)[C@H](O)[C@H](O)CO)C[C@H](O)[C@@H](O)[C@H](O)[C@H](O)CO)C(N)=O)ccc2c1)NC(=O)c1nc(Cl)c(N)nc1N [XIII-bb, 3,5-diamino-N—(N-(4-(6-((S)-4-amino-3-(3-(bis((2S,3R,4R,5R)-2,3,4,5,6-pentahydroxyhexyl)amino)propylamino)-4-oxobutyl)naphthalen-2-yl)butyl)carbamimidoyl)-6-chloropyrazine-2-carboxamide] |
| None | 1.8 ± 0.3 | None | N=C(NCCCCc1ccc(C[C@H](NCCCN(C[C@H](O)[C@@H](O)[C@H](O)[C@H](O)CO)C[C@H](O)[C@@H](O)[C@H](O)[C@H](O)CO)C(N)=O)c2c1CCCC2)NC(=O)c1nc(Cl)c(N)nc1N [XI-cc, 3,5-diamino-N—(N-(4-(4-((S)-3-amino-2-(3-(bis((2S,3R,4R,5R)-2,3,4,5,6-pentahydroxyhexyl)amino)propylamino)-3-oxopropyl)-5,6,7,8-tetrahydronaphthalen-1-yl)butyl)carbamimidoyl)-6-chloropyrazine-2-carboxamide] |
| None | 9.6 ± 6.3 | None | CCCCCCN(CCCN[C@@H](Cc1ccc(CCCCNC(=N)NC(=O)c2nc(Cl)c(N)nc2N)c2c1CCCC2)C(N)=O)C[C@H](O)[C@@H](O)[C@H](O)[C@H](O)CO [XII-d, 3,5-diamino-N—(N-(4-(4-((S)-3-amino-2-(3-(hexyl((2S,3R,4R,5R)-2,3,4,5,6-pentahydroxyhexyl)amino)propylamino)-3-oxopropyl)-5,6,7,8-tetrahydronaphthalen-1-yl)butyl)carbamimidoyl)-6-chloropyrazine-2-carboxamide] |
| None | 1.9 ± 1.7 | None | CCCCCCN(CCCN[C@@H](Cc1ccc(CCCCNC(=N)NC(=O)c2nc(Cl)c(N)nc2N)cc1)C(N)=O)C[C@H](O)[C@@H](O)[C@H](O)[C@H](O)CO [XVII-d] |
| None | 1.2 ± 0.5 | None | CCCCCCN(CCCN[C@@H](CCc1ccc(CCCCNC(=N)NC(=O)c2nc(Cl)c(N)nc2N)c2ccccc12)C(N)=O)C[C@H](O)[C@@H](O)[C@H](O)[C@H](O)CO [VI-d, 3,5-diamino-N—(N-(4-(4-((S)-4-amino-3-(3-(hexyl((2S,3R,4R,5R)-2,3,4,5,6-pentahydroxyhexyl)amino)propylamino)-4-oxobutyl)naphthalen-1-yl)butyl)carbamimidoyl)-6-chloropyrazine-2-carboxamide hydrochloride] |
| None | 0.32 ± 0.6 | None | CCCCCCN(CCCN[C@@H](CCc1ccc2cc(CCCCNC(=N)NC(=O)c3nc(Cl)c(N)nc3N)ccc2c1)C(N)=O)C[C@H](O)[C@@H](O)[C@H](O)[C@H](O)CO [XIV-d, 3,5-diamino-N—(N-(4-(6-((S)-4-amino-3-(3-(hexyl((2S,3R,4R,5R)-2,3,4,5,6-pentahydroxyhexyl)amino)propylamino)-4-oxobutyl)naphthalen-2-yl)butyl)carbamimidoyl)-6-chloropyrazine-2-carboxamide] |
